Source: US20080096939A1, “Process For Preparation Of Pramipexole By Chiral Chromatography” (priority 2004, published 2008)

Columns and labels:
[1] = acetonitrile:methanol (81:19)
Excerpt: Racemic pramipexole was subjected to preparative chromatography using Chiralpak® AD as the stationary phase and acetonitrile:methanol (81:19) as the mobile phase.

dopamine D-2 = dopamine D-2 (Homo sapiens, UniProt P14416); conditions: compared with the R(+) enantiomer; cited from earlier work
Sequence of dopamine D-2 (P14416 whole entry): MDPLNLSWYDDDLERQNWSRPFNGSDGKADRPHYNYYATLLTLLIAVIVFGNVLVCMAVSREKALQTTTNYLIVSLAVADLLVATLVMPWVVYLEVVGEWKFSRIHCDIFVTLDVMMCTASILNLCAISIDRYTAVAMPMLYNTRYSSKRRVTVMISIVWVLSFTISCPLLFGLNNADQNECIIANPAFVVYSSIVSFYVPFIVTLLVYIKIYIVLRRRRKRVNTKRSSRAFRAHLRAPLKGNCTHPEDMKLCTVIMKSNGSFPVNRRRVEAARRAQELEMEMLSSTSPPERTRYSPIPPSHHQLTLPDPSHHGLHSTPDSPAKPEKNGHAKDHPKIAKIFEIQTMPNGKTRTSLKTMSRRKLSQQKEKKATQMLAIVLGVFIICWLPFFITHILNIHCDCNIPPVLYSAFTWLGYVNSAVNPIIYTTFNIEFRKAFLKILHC

## CCCNC1CCc2nc(N)sc2C1 (racemic) [Racemic pramipexole, R,S(±)-2-amino-6-propylamino-4,5,6,7-tetrahydrobenzothiazole]
[1]
  solubility in the mobile phase: > 40 mg/mL

## CCCN[C@H]1CCc2nc(N)sc2C1 [Pramipexole, S(−)-2-amino-6-propylamino-4,5,6,7-tetrahydrobenzothiazole]
Dopamine D-2
  dopaminergic activity of the S(−) enantiomer relative to the corresponding R(+) enantiomer: twice as high
